Test results published in article PMC10945501, “Development and In Vivo Evaluation of Small-Molecule Ligands for Positron Emission Tomography of Immune Checkpoint Modulation Targeting Programmed Cell Death 1 Ligand 1” (Journal of Medicinal Chemistry, 2024).
Each block holds one compound with its values, some of them ahead of it.

Key:
[1] = test system: PD-L1^+ / PD-L1^– H358 tumors (lung adenocarcinoma); design: method as in PMID 37450644; details: ex vivo autoradiography; cited from earlier work
[2] = test system: PD-L1^± ES2 tumors (ovarian carcinoma); design: method as in PMID 37450644; details: ex vivo autoradiography; cited from earlier work
[3] = Plasma protein binding (centrifugal filters); format: in vitro ADME; details: 10 kDa centrifugal filters
Method: Plasma protein binding was assessed using 10 kDa centrifugal filters (Merck KGaA, Darmstadt, Germany). After centrifugation for 30 min at 21,380g, filtrates, and filters were measured separately in a γ counter. In addition, water was used instead of plasma to assess the nonspecific binding to filters.

[4] = test system: CHO and CHO-hPD-L1 xenografts; experiment: In vivo dynamic μPET/CT imaging; details: NSG mice, i.v.
Method: Body weight and tumor development were monitored every second day by caliper measurement. […] The animals were subjected to μPET imaging, when tumors reached a volume of at least 200 mm^3. […] There were no losses. […] The mice were placed in the μPET/CT scanner (Inveon, Siemens Medical Solution, Knoxville, USA), covering the total body, and dynamic imaging was performed for up to 60 min to follow tracer distribution. Images were recorded with frames of 4 × 2 […], and 1 × 500 s. During the whole imaging procedure, vital parameters (respiration, body temperature) were continuously monitored using a dedicated monitoring unit (bioVet; m2m imaging, Cleveland, USA) to ensure the depth of anesthesia and well-being of the animals. […] Volumes of interest (VOIs) were created semiautomatically based on fused μPET and μCT images using PMOD software (Version 3.807; Bruker, Mannheim, Germany). The tracer uptake in the VOIs is normalized to injected dose and volume and expressed as percentage injected dose per cubic centimeter (% ID/cc).

[5] = Plasma stability, mouse plasma; format: in vitro ADME; details: 60 min, 37 °C
Method: (§1) Plasma stability was tested against pooled mouse plasma (Merck KGaA, Darmstadt, Germany) and pooled human plasma (Merck KGaA, Darmstadt, Germany). 25 μL of formulated radiotracer were incubated with 1250 μL of plasma at 37 °C. The amount of intact tracer (%) was determined after 0, 15, 30, and 60 min. 100 μL aliquots were quenched with the same amount of MeCN, centrifuged for 4 min at 4 °C with 21,380g, and analyzed by HPLC setup 1.

[6] = Metabolic stability in human liver microsomes; format: in vitro ADME; details: 60 min, 37 °C
Method: Metabolic stability was tested using pooled, mixed gender, 20 donor human liver microsomes (HLM) (Corning, Corning, USA, Cat. #452161) according to the supplied protocol. In short, 15 μL of HLM (20 mg/mL), 15 μL of nicotinamide adenine dinucleotide phosphate (NADPH) regenerating system solution A (Corning, Corning, USA), 3 μL of solution B (Corning, Corning, USA), and 257 μL of a 1:10 dilution of 10× phosphate-buffered saline (PBS) concentrate (MORPHISTO, Offenbach am Main, Germany) were preincubated at 37 °C for 10 min.
Aliquots were drawn 0, 15, 30, and 60 min after the addition of 5 μL radiotracer, subsequently quenched with the same amount of MeCN, centrifuged for 4 min at 21,380g, and analyzed by HPLC setup 1 for the amount of intact tracer (%).

[7] = Plasma stability, human plasma; format: in vitro ADME; details: 60 min, 37 °C
Method: as §1

[8] = test system: CHO and CHO-hPD-L1 xenografts; experiment: Ex vivo biodistribution; format: in vivo, NSG mice
Method: Ex vivo biodistribution was assessed 30, 40, and 70 min after tracer application in NSG mice. Radioactivity was determined using a Wizard[2] γ counter. Samples were measured for 30 s, CPM-corrected for background counts, and half-life corrected to time of tracer injection. Organs were wet-weighted, and the percentage of injected dose per gram of organ was calculated (% ID/g).

PD-L1 = test system: PD-L1; design: method as in PMID 37409670; details: B16–F10, no control xenograft; cited from earlier work

SMILES: N#Cc1c(-c2ccc([18F])cc2)csc1OCc1ccc(CN)cc1 [2-((4-(aminomethyl)benzyl)oxy)-4-(4-[^18F]fluorophenyl)thiophene-3-carbonitrile]
fold higher uptake in PD-L1^+ compared to PD-L1^– tumors [1]: 1.4 fold | difference in uptake PD-L1^+ vs PD-L1^– tumors [2]: not observed

fraction unbound [3]: 0.011 | uptake in CHO and CHO-hPD-L1 xenografts (μPET) ([4]; dynamic scan up to 60 min): < 1.2 % ID/cc | intact tracer in mouse plasma [5]: over 99% | intact tracer after human liver microsomes [6]: 49.3% | intact tracer in human plasma [7]: over 99% | ex vivo uptake marked in Figure 9B ([8]; NSG mice, 30, 40 or 70 min p.i.): < 1.5 % ID/g
SMILES: Cc1c(COc2cc(OCc3ccnc(C#N)c3)c(CN([11CH3])CCO)cc2Cl)cccc1-c1ccc2c(c1)OCCO2 [[^11C]5c]
organ uptake (μPET) [4]: high uptake in the liver, intestine, gallbladder, and kidneys | organ uptake (ex vivo biodistribution) ([8]; NSG mice): substantial uptake in the liver, lung, and kidneys

SMILES: Cc1c(COc2cc(OCc3cccc(OS(=O)(=O)[18F])c3)c(CNC(CO)(CO)CO)cc2Cl)cccc1-c1ccc2c(c1)OCCO2 [[^18F]LGSu-1]
PD-L1^+ tumor uptake (PD-L1): 3.3 % ID/mL
